Measured values reported in patent US5294713A, “2-piperazinone compounds and their use” (Takeda Chemical Industries, Ltd., priority 1991, dated 1994).

Tests used:
[1] = tested on: guinea pig platelet aggregation; assay: Inhibitory action on guinea pig platelet aggregation (ADP-stimulated PRP); type: cell-based; conditions: Cavia porcellus, ADP final concentration 1 μM, in vitro, read-out: Inhibitory effect on platelet aggregation in vitro (IC50) guinea pig
Protocol: TEST EXAMPLE 1 [I] Inhibitory action on guinea pig platelet aggregation
Blood was collected in 3.15% sodium citrate (1 ml for 9 ml of blood) by cardiac puncture from male guinea pig. The blood was centrifuged at 1000 g for 3 to 5 seconds at room temperature to obtain platelet rich plasma (PRP). The PRP was further centrifuged at 1000 g for 10 minutes to obtain platelet poor plasma (PPP). The number of platelets was measured using an automatic blood cell counter (Sysmex E2500, Toaiyou-densi). The platelet density of PRP was adjusted to 400,000/μl with PPP. Platelet aggregation was measured using an 8-channel aggregometer (NBS HEMA TRACER VI Niko Bioscience Inc.). The PRP (250 μl ) was preincubated at 37° C. for 2 minutes. and then incubated for 2 minutes. with 25 μl of physiological saline or various concentrations of test drugs followed by stimulation with ADP (final concentration: 1 μM). By comparing the maximum aggregation rates of the control and those of test drugs, the inhibitory rates were determined. The results are shown in [Table 1]-[Table 3].

[2] = tested on: human platelet aggregation; assay: Inhibitory action on human platelet aggregation (ADP-stimulated PRP); type: cell-based; conditions: ADP final concentration 3 μM, in vitro, read-out: Inhibitory effect on platelet aggregation in vitro (IC50) man
Protocol: [II] Inhibitory action on human platelet aggregation
Human blood was collected in 3.8% sodium citrate (1 ml for 9 ml of blood) by venipuncture from healthy male volunteers. The blood was centrifuged at 1000 g for 3 to 5 seconds at room temperature to obtain platelet rich plasma (PRP). The PRP was further centrifuged at 1000 g for 10 minutes to obtain platelet poor plasma (PPP). The number of platelets was measured using an automatic blood cell counter (Sysmex E2500, Toaiyou-densi). The platelet density of PRP was adjusted to 300,000/μl with PPP. Platelet aggregation was measured using an 8-channel aggregometer (NBS HEMA TRACER VI Niko Bioscience Inc.). The PRP (250 μl) was preincubated at 37° C. for 2 minutes. and then incubated for 2 minutes. with 25 μl of physiological saline or various concentrations of test drugs followed by stimulation with ADP (final concentration: 3 μM). By comparing the maximum aggregation rates of the control and those of test drugs, the inhibitory rates were determined. The results are shown in [Table 1]-[Table 3].

[3] = target: T1, GPIIb/IIIa (Homo sapiens, UniProt P05106+P08514); assay: Inhibition of fibrinogen binding to GPIIb/IIIa; conditions: purified GPIIb/IIIa from HEL cells, biotinylated human fibrinogen 1 nM
T1 construct: Purification of GPIIb/IIIa from HEL Cells; endogenous in cells; host or cells: HEL cells (HEL 92.1.7; ATCC TIB180), human erythroleukemia; GPIIb/IIIa solubilized in Triton X-100, purified and adsorbed on microtiter plates
T1 sequence (P08514 32-887 limits assumed): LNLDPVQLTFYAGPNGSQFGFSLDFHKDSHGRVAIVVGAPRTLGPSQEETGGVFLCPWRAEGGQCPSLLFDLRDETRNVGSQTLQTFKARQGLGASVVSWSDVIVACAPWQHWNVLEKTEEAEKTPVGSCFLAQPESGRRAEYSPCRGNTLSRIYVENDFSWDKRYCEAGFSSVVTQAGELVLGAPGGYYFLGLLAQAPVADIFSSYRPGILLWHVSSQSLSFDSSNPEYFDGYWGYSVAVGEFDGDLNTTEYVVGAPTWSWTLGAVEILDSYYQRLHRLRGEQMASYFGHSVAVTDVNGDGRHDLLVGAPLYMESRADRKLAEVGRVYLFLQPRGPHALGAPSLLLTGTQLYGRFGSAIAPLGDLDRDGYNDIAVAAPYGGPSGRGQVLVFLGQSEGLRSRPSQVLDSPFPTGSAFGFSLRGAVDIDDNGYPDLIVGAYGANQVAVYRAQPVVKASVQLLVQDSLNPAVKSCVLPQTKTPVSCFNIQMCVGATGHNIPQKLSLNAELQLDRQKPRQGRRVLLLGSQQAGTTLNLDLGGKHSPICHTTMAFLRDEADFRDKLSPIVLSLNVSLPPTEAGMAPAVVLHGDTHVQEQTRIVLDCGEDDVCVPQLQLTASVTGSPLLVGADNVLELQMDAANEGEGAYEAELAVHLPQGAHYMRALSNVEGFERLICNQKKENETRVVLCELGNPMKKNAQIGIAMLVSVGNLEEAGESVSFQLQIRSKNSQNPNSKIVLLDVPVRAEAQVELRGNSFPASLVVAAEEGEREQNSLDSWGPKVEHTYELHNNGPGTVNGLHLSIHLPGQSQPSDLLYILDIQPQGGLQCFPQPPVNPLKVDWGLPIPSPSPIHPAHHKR
T1 sequence (P08514 891-1039 limits assumed): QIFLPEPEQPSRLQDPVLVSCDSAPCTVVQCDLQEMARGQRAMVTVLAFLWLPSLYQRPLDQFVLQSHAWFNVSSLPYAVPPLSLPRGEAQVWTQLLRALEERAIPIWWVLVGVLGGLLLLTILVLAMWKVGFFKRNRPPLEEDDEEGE
T1 sequence (P05106 27-788): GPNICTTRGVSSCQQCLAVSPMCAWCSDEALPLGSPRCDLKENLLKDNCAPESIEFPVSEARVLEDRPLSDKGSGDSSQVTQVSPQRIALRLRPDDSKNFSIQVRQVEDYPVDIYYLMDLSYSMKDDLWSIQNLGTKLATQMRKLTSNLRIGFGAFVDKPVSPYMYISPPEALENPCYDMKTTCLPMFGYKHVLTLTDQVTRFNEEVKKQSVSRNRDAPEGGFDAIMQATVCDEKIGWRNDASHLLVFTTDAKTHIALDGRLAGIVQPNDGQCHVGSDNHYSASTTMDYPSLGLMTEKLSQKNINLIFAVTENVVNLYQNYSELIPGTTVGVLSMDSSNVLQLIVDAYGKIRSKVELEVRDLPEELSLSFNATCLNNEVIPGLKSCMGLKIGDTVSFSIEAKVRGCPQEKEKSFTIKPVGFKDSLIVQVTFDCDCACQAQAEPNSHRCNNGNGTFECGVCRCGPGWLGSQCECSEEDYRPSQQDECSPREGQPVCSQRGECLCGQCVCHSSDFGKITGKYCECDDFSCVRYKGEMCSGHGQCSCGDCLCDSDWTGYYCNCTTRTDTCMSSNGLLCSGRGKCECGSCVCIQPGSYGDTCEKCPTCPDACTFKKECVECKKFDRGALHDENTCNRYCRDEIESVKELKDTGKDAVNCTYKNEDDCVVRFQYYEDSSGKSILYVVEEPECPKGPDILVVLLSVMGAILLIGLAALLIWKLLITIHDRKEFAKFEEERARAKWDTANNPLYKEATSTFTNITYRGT
Protocol: (1) Cultibation of Cells Derived from Human Erythroleukemia (Hereinafter Referred to as HEL Cells)
HEL cells (HEL 92. 1. 7; ATCC No. TIB180) were purchased from ATCC (Rockville, Md., U.S.A.). The cells were grown in RPMI medium containing 40 mM N-2-hydroxyethylpiperazin-N'-2-ethanesulfonic acid (hereinafter referred to as HEPES) (pH 7.0), 100 μg/ml of Kanamycin and 10% FCS (GIBCO Laboratories, Grand Island, N.Y., U.S.A.). Cultivation was conducted at 37° C in the presence of 5% CO2.
(2) Purification of GPIIb/IIIa from HEL Cells
Purification of GPIIb/IIIa was performed using the following modification of the method of L. A. Fitzgerald et al. [J. Biol. Chem., 262, 3936 (1987)]. The purification was conducted at room temperature unless specifically mentioned. From 7 L of the culture broth on 7th day of the cultibation (floating cells), the cells were collected by centrifugation (1,000×g, 10 minutes, 4° C.), which were washed with 20 mM Tris-HCl(pH 7.5) containing 1 mM EDTA and 150 mM NaCl. The cells were suspended in 80 ml of a solubilized buffer [20 mM Tris-HCl, 150 mM NaCl, 1% Triton X-100, 1 mM MgCl2, 1 mM CaCl2, 0.1 mM (p-amidinophenyl)methanesulfonyl fluoride (hereinafter referred to as APMSF), 10 nM leupeptin, 0.02% NaN3, pH 7.4)].
The cell suspension was gently mixed for 30 minutes at 4° C. to solubilize GPIIb/IIIa. The suspension was subjected to centrigugation (100,000×g, one hour) at 4° C. to remove cell debris to obtain a cell-extraction solution (60 ml). […] The fraction which passed through the column was charged on the ConA-Sepharose column (Pharmacia LKB, .phi. 1.0×15 cm, 20 ml/hr) to allow GPIIb/IIIa to be adsorbed thereon, then GPIIb/IIIa was eluted with column buffer solution containing 0.5 M methyl α-D-mannopyranoside. The eluate thus obtained was allowed to pass through the DEAE-Toyopearl 650 M column (Tosoh, .phi. 1.6×10.5 cm, 20 ml/hr) equilibrated with the same column buffer to remove contaminating proteins.
(3) Biotinylation of Human Fibrinogen
Biotinylation of human fibrinogen was performed by the following procedure [I. F. Charo et al., J. Biol. Chem., 266, 1415 (1991)]. Human fibrinogen (Kabi Vitrum AB, Stockholm, Sweden) was dissolved in PBS so as to make its concentration 5 mg/ml. The solution was dialyzed overnight at 4° C. against 1 L of 0.1 M NaHCO3 -0.1 M NaCl (pH 8.2). Insolubles were then removed by centrifugation (100,000×g, 30 minutes), and the solution was diluted with the same buffer to the protein concentration of 1 mg/ml. To thus-diluted solution was added powdery sulfo-N-hydroxysuccinimidobiotin (Pierce Chemical Co., Rockford, Ill., U.S.A.) so as to make its final concentration 0.2 mg/ml and gently mixed to perform biotinylate fibrinogen. The resultant was subjected to dialysis against 50 mM Tris-HCl (pH 7.4) - 100 mM NaCl-0.05% NaN3. The dialysate was distributed and stored at 4° C.
(4) Inhibition Assay for Fibrinogen Binding to GPIIb/IIIa
This experiment was performed using a modification of the method described in the above-mentioned I. F. Charo et al. report. The purified GPIIb/IIIa was diluted with the buffer A (20 mM Tris-HCl, 150 mM NaCl, 1 mM CaCl2, 0.02% NaN3, pH 7.4) to a concentration of 1 μg/ml. The diluted solution was added to 96-well microtiter plates (MaxiSorp; Nunc, Denmark) at 100 μl per well, which were left standing at 4° C. overnight to allow GPIIb/IIIa to be adsorbed on the microplates. The plate was aspirated, and then 150 μl of the buffer B (35 mg/ml BSA, 50 mM Tris-HCl, 100 mM NaCl, 2 mM CaCl2, 0.02%, NaN3, pH 7.4) was added to the plate, and blocking was performed at 30° C. for 2 hours. The plate was washed twice with 250 μl each of the buffer C (1 mg/ml BSA, 50mM Tris-HCl, 100 mM NaCl, 2 mM CaCl2, pH 7.4).

SMILES | IC50 [1] [nM] | IC50 [2] [nM] | IC50 [3] [nM]
N=C(N)c1ccc(C(=O)NCC(=O)N2CCN(CC(=O)O)C(=O)C2)cc1 [compound 55] | 210 | 94 | 0.42
NCCc1ccc(C(=O)NCC(=O)N2CCN(CC(=O)O)C(=O)[C@@H]2CCC(=O)O)cc1 [compound 76] | 110 | 150 | 1
N=C(N)NCCCCC(=O)NCC(=O)N1CCN(CC(=O)O)C(=O)[C@@H]1CC(=O)O [compound 6] | – | – | 46
N=C(N)NC[C@H]1CC[C@H](C(=O)NCC(=O)N2CCN(CC(=O)O)C(=O)[C@@H]2CC(N)=O)CC1 [compound 22] | 4400 | 720 | 23
N=C(N)c1ccc(CC(=O)NCC(=O)N2CCN(CC(=O)O)C(=O)[C@@H]2CC(=O)O)cc1 [compound 45] | 1600 | 1500 | 8.1
NCCc1ccc(C(=O)NCC(=O)N2CCN(CC(=O)O)C(=O)[C@@H]2CC(=O)O)cc1 [compound 46] | 130 | 230 | 2.5
N=C(N)c1ccc(C(=O)NCC(=O)N2CCN(CC(=O)O)C(=O)[C@@H]2CC(N)=O)cc1 [compound 71] | 110 | 74 | 0.92
NCCc1ccc(C(=O)NCC(=O)N2CCN(CC(=O)O)C(=O)C2)cc1 [compound 87] | 150 | 180 | 1.6
N=C(N)NC[C@H]1CC[C@H](C(=O)NCC(=O)N2CCN(CC(=O)O)C(=O)[C@@H]2Cc2ccccc2)CC1 [compound 16] | 4600 | 990 | 32
N=C(N)NCc1cccc(C(=O)NCC(=O)N2CCN(CC(=O)O)C(=O)[C@@H]2CC(=O)O)c1 [compound 9] | – | – | 73
CN(CC(=O)N1CCN(CC(=O)O)C(=O)[C@@H]1CC(=O)O)C(=O)[C@H]1CC[C@H](CNC(=N)N)CC1 [compound 12] | 1100 | 700 | 10
COC(=O)C[C@H]1C(=O)N(CC(=O)O)CCN1C(=O)CNC(=O)c1ccc(CCN)cc1 [compound 60] | 78 | 93 | 0.91
NCc1ccc(C(=O)NCC(=O)N2CCN(CC(=O)O)C(=O)[C@@H]2CC(=O)O)cc1 [compound 47] | – | 4200 | –
CN(CC(=O)N1CCN(CC(=O)O)C(=O)[C@@H]1CC(=O)O)C(=O)c1ccc(NC(=N)N)cc1 [compound 51] | 370 | 460 | –
N=C(N)c1ccc(C(=O)NCC(=O)N2CCN([C@@H](Cc3ccccc3)C(=O)O)C(=O)[C@@H]2CC(=O)O)cc1 [compound 54] | 4100 | 660 | 6.1
CN(C)CCc1ccc(C(=O)NCC(=O)N2CCN(CC(=O)O)C(=O)[C@@H]2CCC(N)=O)cc1 [compound 85] | 4100 | 5600 | 32
NCCc1ccc(C(=O)NCC(=O)N2CCN(CC(=O)O)C(=O)[C@@H]2Cc2ccccc2)cc1 [compound 89] | 200 | 380 | 3.6
N=C(N)NC[C@H]1CC[C@H](C(=O)NCC(=O)N2CCN(CC(=O)O)C(=O)C2)CC1 [compound 35] | 5200 | 1100 | –
N=C(N)Nc1ccc(C(=O)NCC(=O)N2CCN(CC(=O)O)C(=O)[C@@H]2CC(=O)O)cc1 [compound 10] | 340 | 260 | 4.8
N=C(N)Nc1ccc(C(=O)N2CCC[C@H]2C(=O)N2CCN(CC(=O)O)C(=O)[C@@H]2CC(=O)O)cc1 [compound 50] | 345 | – | 21
N=C(N)N1CCC(C(=O)NCC(=O)N2CCN(CC(=O)O)C(=O)[C@@H]2CC(=O)O)CC1 [compound 38] | 9600 | 1600 | 21
COC(=O)C[C@H]1C(=O)N(CC(=O)O)CCN1C(=O)CNC(=O)c1ccc(C(=N)N)cc1 [compound 59] | 56 | 48 | 0.49
C[C@@H](C(=O)O)N1CCN(C(=O)CNC(=O)c2ccc(C(=N)N)cc2)[C@@H](CC(=O)O)C1=O [compound 69] | 1500 | 1600 | 19
N=C(N)NC[C@H]1CC[C@H](C(=O)NCC(=O)N2CCN(CC(=O)O)C(=O)[C@@H]2CCC(=O)O)CC1 [compound 32] | 3100 | 960 | 15
NCCc1ccc(C(=O)NCC(=O)N2CCN(CC(=O)O)C(=O)[C@@H]2CC(N)=O)cc1 [compound 88] | 84 | 140 | 2.3
NCCCc1ccc(C(=O)NCC(=O)N2CCN(CC(=O)O)C(=O)[C@@H]2CC(=O)O)cc1 [compound 48] | – | – | 15
CCC(C)[C@H]1C(=O)N(CC(=O)O)CCN1C(=O)CNC(=O)c1ccc(NC(=N)N)cc1 (stereo partly shown) [compound 65] | 4600 | – | 98
N=C(N)c1ccc(C(=O)NCC(=O)N2CCN(CC(=O)O)C(=O)[C@@H]2Cc2ccccc2)cc1 [compound 61] | 160 | 130 | –
COC(=O)CC[C@H]1C(=O)N(CC(=O)O)CCN1C(=O)CNC(=O)c1ccc(CCN(C)C)cc1 [compound 81] | 2300 | – | 37
